Data as given in patent US20060069132A1, “Azolecarboxamide herbicides” (priority 2004, published 2006).

Experiments:
Test in all cases: Test C pre-/postemergence herbicide test
common ragweed = type: in vivo, Ambrosia elatior; parameters: key to Plant response rating, Ragweed: 0 = no effect, 100 = complete control
Method in brief: (§1)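 Pre- and postemergence application, solvent/surfactant formulation; post at 1- to 4-leaf stage (2–18 cm). Greenhouse 12–14 d. Visual rating vs controls, 0 = no effect, 100 = complete control.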

[1] = test system: common (oilseed) sunflower; type: in vivo, Helianthus annuus
Method in brief: as §1

pigweed = type: in vivo, Amaranthus retroflexus
Method in brief: as §1

lambsquarters = type: in vivo, Chenopodium album
Method in brief: as §1

large crabgrass = type: in vivo, Digitaria sanguinalis
Method in brief: as §1

[2] = 62 g ai/ha, preemergence, scale 0 to 100
[3] = 125 g ai/ha, scale 0 (no effect) to 100 (complete control), visual, 12 to 14 days, preemergence
[4] = 250 g ai/ha, scale 0-100, preemergence
[5] = Preemergence, 500 g ai/ha, scale 0 to 100, 0 no effect, 100 complete control
[6] = 500 g ai/ha, scale 0 to 100 (0 no effect, 100 complete control), visual, 12 to 14 days, preemergence
[7] = Postemergence, 250 g ai/ha, scale 0 to 100, 0 no effect, 100 complete control
[8] = postemergence, 125 g ai/ha, scale 0 to 100
[9] = postemergence, 62 g ai/ha, scale 0 to 100
[10] = Postemergence, 500 g ai/ha, scale 0 to 100

SMILES | Plant response rating, Ragweed (common ragweed; [2]) | Plant response rating, Ragweed (common ragweed; [3]) | Plant response rating, Ragweed (common ragweed; [4]) | Plant response rating, Sunflower [1, 2] | Plant response rating, Sunflower [1, 3] | Plant response rating, Sunflower [1, 4] | Plant response rating, Pigweed (pigweed; [2]) | Plant response rating, Pigweed (pigweed; [3]) | Plant response rating, Pigweed (pigweed; [4]) | Plant response rating, Lambsquarters (lambsquarters; [2]) | Plant response rating, Lambsquarters (lambsquarters; [3]) | Plant response rating, Lambsquarters (lambsquarters; [4]) | Plant response rating, Crabgrass, Large (large crabgrass; [2]) | Plant response rating, Crabgrass, Large (large crabgrass; [3]) | Plant response rating, Crabgrass, Large (large crabgrass; [4]) | Plant response rating, Ragweed (common ragweed; [6]) | Plant response rating, Sunflower [1, 6] | Plant response rating, Pigweed (pigweed; [6]) | Plant response rating, Lambsquarters (lambsquarters; [6]) | Plant response rating, Crabgrass, Large (large crabgrass; [6]) | other results
CCc1nc(C(C)(C)C)sc1C(=O)Nc1cccc(C(=O)N(CC)CC)c1 [Compound 205] | 0 | 20 | 50 | 0 | 0 | 0 | 90 | 95 | 95 | 85 | 90 | 90 | 60 | 80 | 100 |  |  |  |  |  | Ragweed plant response rating (common ragweed; [5]): 100; Sunflower plant response rating [1, 5]: 0; Pigweed plant response rating (pigweed; [5]): 100; Lambsquarters plant response rating (lambsquarters; [5]): 100; Crabgrass, Large plant response rating (large crabgrass; [5]): 100
CCc1nc(C(C)(C)C)sc1C(=O)Nc1cccc(C(=O)NCC2CC2)c1 [Compound 212] | 0 | 0 | 30 | 0 | 0 | 0 | 100 | 100 | 100 | 100 | 100 | 100 | 60 | 80 | 85 | 95 | 0 | 100 | 100 | 100 | Plant response rating, Ragweed (common ragweed; [7]): 80; Plant response rating, Ragweed (common ragweed; [8]): 60; Plant response rating, Ragweed (common ragweed; [9]): 60; Pigweed plant response rating (pigweed; [10]): 90; Plant response rating, Pigweed (pigweed; [7]): 70; Plant response rating, Pigweed (pigweed; [9]): 50; Lambsquarters plant response rating (lambsquarters; [10]): 100; Plant response rating, Lambsquarters (lambsquarters; [7]): 90; Plant response rating, Lambsquarters (lambsquarters; [8]): 90; Plant response rating, Lambsquarters (lambsquarters; [9]): 80; Crabgrass, Large plant response rating (large crabgrass; [10]): 20; Plant response rating, Crabgrass, Large (large crabgrass; [7]): 20; Plant response rating, Crabgrass, Large (large crabgrass; [8]): 10; Plant response rating, Crabgrass, Large (large crabgrass; [9]): 0
CCNC(=O)c1cccc(NC(=O)c2nn(C(C)(C)C)cc2Br)c1 [Compound 221, 4-bromo-1-(1,1-dimethylethyl)-N-[3-[(ethylamino)carbonyl]phenyl]-1H-pyrazole-3-carboxamide] |  |  |  |  |  |  |  |  |  |  |  |  |  |  |  |  |  |  |  |  | pest or weed control at 62 g/ha (common ragweed; Ambrosia artemisiifolia, pre-emergence, 62 g ai/ha, preemergence, scale 0 to 100, read-out: Plant response rating, Ragweed): 0%; pest or weed control at 500 g/ha (common ragweed; Ambrosia artemisiifolia, pre-emergence, 500 g ai/ha, scale 0 to 100 (0 no effect, 100 complete control), visual, 12 to 14 days, read-out: Plant response rating, Ragweed): 60%; pest or weed control at 62 g/ha ([1]; Helianthus annuus, pre-emergence, 62 g ai/ha, preemergence, scale 0 to 100, read-out: Plant response rating, Sunflower): 0%; pest or weed control at 250 g/ha ([1]; Helianthus annuus, pre-emergence, 250 g ai/ha, scale 0-100, read-out: Plant response rating, Sunflower): 0%; pest or weed control at 500 g/ha ([1]; Helianthus annuus, pre-emergence, 500 g ai/ha, scale 0 to 100 (0 no effect, 100 complete control), visual, 12 to 14 days, read-out: Plant response rating, Sunflower): 30%; pest or weed control at 62 g/ha (pigweed; Amaranthus retroflexus, pre-emergence, 62 g ai/ha, preemergence, scale 0 to 100, read-out: Plant response rating, Pigweed): 90%; pest or weed control at 125 g/ha (pigweed; Amaranthus retroflexus, pre-emergence, 125 g ai/ha, scale 0 (no effect) to 100 (complete control), visual, 12 to 14 days, read-out: Plant response rating, Pigweed): 100%; pest or weed control at 250 g/ha (pigweed; Amaranthus retroflexus, pre-emergence, 250 g ai/ha, scale 0-100, read-out: Plant response rating, Pigweed): 100%; pest or weed control at 500 g/ha (pigweed; Amaranthus retroflexus, pre-emergence, 500 g ai/ha, scale 0 to 100 (0 no effect, 100 complete control), visual, 12 to 14 days, read-out: Plant response rating, Pigweed): 100%; pest or weed control at 62 g/ha (lambsquarters; Chenopodium album, pre-emergence, 62 g ai/ha, preemergence, scale 0 to 100, read-out: Plant response rating, Lambsquarters): 0%; pest or weed control at 125 g/ha (lambsquarters; Chenopodium album, pre-emergence, 125 g ai/ha, scale 0 (no effect) to 100 (complete control), visual, 12 to 14 days, read-out: Plant response rating, Lambsquarters): 20%; pest or weed control at 250 g/ha (lambsquarters; Chenopodium album, pre-emergence, 250 g ai/ha, scale 0-100, read-out: Plant response rating, Lambsquarters): 90%; pest or weed control at 500 g/ha (lambsquarters; Chenopodium album, pre-emergence, 500 g ai/ha, scale 0 to 100 (0 no effect, 100 complete control), visual, 12 to 14 days, read-out: Plant response rating, Lambsquarters): 100%; pest or weed control at 62 g/ha (large crabgrass; Digitaria sanguinalis, pre-emergence, 312 h, 62 g ai/ha, preemergence, scale 0 to 100, read-out: Plant response rating, Crabgrass, Large): 0%; pest or weed control at 125 g/ha (large crabgrass; Digitaria sanguinalis, pre-emergence, 312 h, 125 g ai/ha, scale 0 (no effect) to 100 (complete control), visual, 12 to 14 days, read-out: Plant response rating, Crabgrass, Large): 100%; pest or weed control at 250 g/ha (large crabgrass; Digitaria sanguinalis, pre-emergence, 312 h, 250 g ai/ha, scale 0-100, read-out: Plant response rating, Crabgrass, Large): 100%; pest or weed control at 500 g/ha (large crabgrass; Digitaria sanguinalis, pre-emergence, 312 h, 500 g ai/ha, scale 0 to 100 (0 no effect, 100 complete control), visual, 12 to 14 days, read-out: Plant response rating, Crabgrass, Large): 100%
CCN(CC)C(=O)c1cccc(NC(=O)c2cc(C(C)(C)C)nn2C)n1 [Compound 314] | 0 |  | 40 | 0 |  | 20 | 30 | 60 | 90 | 0 | 10 | 30 | 0 | 0 | 40 | 60 | 45 | 90 | 85 | 60 | 
